Data reported in patent publication US6372297B1, “Wood preservative oxathiazines” (Uniroyal Chemical Company, Inc., priority 1993, dated 2002).

Experiments:
Type in all cases: cell-based
Pseudomonas aeruginosa = test: Wood preservative efficacy against bacteria and yeasts, tryptose agar plates; parameters: key: 0 = growth equal to control, 1 = growth inhibited, 2 = no growth; details: 100 ppm in tryptose agar
Procedure: Compositions were prepared by dissolving the compounds shown in Table 1 in 50% ethanol and further diluting with sterile distilled water. […] After cooling, the medium was inoculated with the bacteria listed below. After sufficient growth of the untreated cultures, the compounds were evaluated using the following rating system: 0=growth equal to control 1=inhibition of growth by the compound 2=no growth under the influence of the compound. In this Table, the higher numbers are the most preferred species. Pseudomonas aeruginosa (gram neg)

Enterobacter aerogenes = test: as above; parameters: key: 0 = growth equal to control, 1 = inhibition, 2 = no growth
Procedure: Compositions were prepared by dissolving the compounds shown in Table 1 in 50% ethanol and further diluting with sterile distilled water. […] After cooling, the medium was inoculated with the bacteria listed below. After sufficient growth of the untreated cultures, the compounds were evaluated using the following rating system: 0=growth equal to control 1=inhibition of growth by the compound 2=no growth under the influence of the compound. In this Table, the higher numbers are the most preferred species. Enterobacter aerogenes (gram neg)

Escherichia coli = test: as above; parameters: key: 0 = growth equal to control, 1 = growth inhibited, 2 = no growth
Procedure: Compositions were prepared by dissolving the compounds shown in Table 1 in 50% ethanol and further diluting with sterile distilled water. […] After cooling, the medium was inoculated with the bacteria listed below. After sufficient growth of the untreated cultures, the compounds were evaluated using the following rating system: 0=growth equal to control 1=inhibition of growth by the compound 2=no growth under the influence of the compound. In this Table, the higher numbers are the most preferred species. Escherichia coli ([…])

Coriolus versicolor = test: Wood preservative efficacy against fungi, agar plate colony diameter; details: for Score of fungicidal activity, C. VERSICLOR: Test dosage 10 ppm, Table 6A; for Score of fungicidal activity, G. VERSICLOR: Table 6B
Procedure: (§1) Each plate was inoculated with a spore suspension or with a small piece of agar (1 mm) from the margin of an actively growing colony of the test fungus. The fungi employed are listed below. After incubation at 22° C. and 70% relative humidity during a period long enough to allow significant growth of untreated controls, the diameters of the fungus colonies were measured and scored using the following rating system: 0=free of fungal growth 1=25% of fungal growth compared to untreated 2=50% of fungal growth compared to untreated 3=75% of fungal growth compared to untreated 4=Growth equal to that of untreated The scores measured for wood preservation efficacy of the compounds of this invention are listed in Tables 6a and 6b. In these Tables, the lower numbers are the most preferred species. Coriolus versicolor

Chaetomium globosum = test: as above
Procedure: as §1, with “Chaetomium globosum” for “Coriolus versicolor”

Aureobasidium pullulans = test: as above; parameters: key: 1=25%, 2=50%, 3=75%, 4=100% of untreated growth; lower better
Procedure: The compounds shown in Table 1 were dissolved in 50% ethanol and then diluted with sterile water to give the required concentrations of 1 and 10 ppm in the test agar plates. Malt extract sugar (3%) was added aseptically and uniform distribution was obtained by shaking. Each plate was inoculated with a spore suspension or with a small piece of agar (1 mm) from the margin of an actively growing colony of the test fungus. The fungi employed are listed below. After incubation at 22° C. and 70% relative humidity during a period long enough to allow significant growth of untreated controls, the diameters of the fungus colonies were measured and scored using the following rating system:
1=25% of fungal growth compared to untreated
2=50% of fungal growth compared to untreated
3=75% of fungal growth compared to untreated
4=Growth equal to that of untreated
In these Tables, the lower numbers are the most preferred species.

Cladosporium resinae = test: as above
Procedure: as §1, with “Cladosporium resinae (syn Hormonocanis resinae, Amorphotheca resinae)” for “Coriolus versicolor”

Aspergillus flavus = test: as above
Procedure: as §1, with “Aspergillus flavus” for “Coriolus versicolor”

Trichoderma viride = test: as above
Procedure: as §1, with “Trichoderma viride” for “Coriolus versicolor”

SMILES	Score of bactericidal activity, P. aeruginosa (Pseudomonas aeruginosa)	Score of bactericidal activity, E. aerogenes (Enterobacter aerogenes; 100 ppm in tryptose agar)	Score of bactericidal activity, E. Coli (Escherichia coli; 100 ppm in tryptose agar)	Score of fungicidal activity, C. VERSICLOR (Coriolus versicolor)	Score of fungicidal activity, C. GLOBOSUM (Chaetomium globosum; Test dosage 10 ppm, Table 6A)	Score of fungicidal activity, A. PULLULANS (Aureobasidium pullulans; Test dosage 10 ppm, Table 6A)	Score of fungicidal activity, CL RESINAE (Cladosporium resinae; Test dosage 10 ppm, Table 6A)	Score of fungicidal activity, A. FLAVUS (Aspergillus flavus; Test dosage 10 ppm, Table 6A)	Score of fungicidal activity, T. VIRIDE (Trichoderma viride; Test dosage 10 ppm, Table 6A)	Score of bactericidal activity, E. aerogenes (Enterobacter aerogenes; 10 ppm in tryptose agar)	Score of bactericidal activity, E. Coli (Escherichia coli; 10 ppm in tryptose agar)	Score of fungicidal activity, G. VERSICLOR (Coriolus versicolor; 1 ppm)	Score of fungicidal activity, G. VERSICLOR (Coriolus versicolor; 10 ppm)	Score of fungicidal activity, C. GLOBOSUM (Chaetomium globosum; 10 ppm, Table 6B)	Score of fungicidal activity, A. PULLULANS (Aureobasidium pullulans; 10 ppm, Table 6B)	Score of fungicidal activity, CL RESINAE (Cladosporium resinae; 10 ppm, Table 6B)	Score of fungicidal activity, A. FLAVUS (Aspergillus flavus; 10 ppm, Table 6B)	Score of fungicidal activity, T. VIRIDE (Trichoderma viride; 10 ppm, Table 6B)
C[S+]1CCON=C1c1ccc(Cl)cc1 (stereo not shown) [Compound 1]	0	0	2	0	0	3 (75% of growth compared to untreated control)	2 (50% of growth compared to untreated control)	0	2 (50% of growth compared to untreated control)									
[O-][S+]1CCON=C1c1ccc(Cl)c(Cl)c1 (stereo not shown) [Compound 4]	0	0	2	0	0	2 (50% of growth compared to untreated control)	0	0	1 (25% of growth compared to untreated control)									
[O-][S+]1CCON=C1c1cccs1 (stereo not shown) [Compound 8]	1	2	2	0	2 (50% of growth compared to untreated control)	2 (50% of growth compared to untreated control)	2 (50% of growth compared to untreated control)	1 (25% of growth compared to untreated control)	2 (50% of growth compared to untreated control)									
CC(=O)c1ccc(C2=NOCC[S+]2[O-])cc1 (stereo not shown) [Compound 14]	1	0	2	2 (50% of growth compared to untreated control)	4	4	0	2 (50% of growth compared to untreated control)	3 (75% of growth compared to untreated control)									
C[S+]1CCON=C1c1cc(Cl)cc(Cl)c1 (stereo not shown) [Compound 19]	0	0	0							0	0	2 (50% of growth compared to untreated control)	0	0	3 (75% of growth compared to untreated control)	0	0	2 (50% of growth compared to untreated control)
CCOC(=O)c1ccc(C2=NOCC[S+]2[O-])cc1 (stereo not shown) [Compound 22]	0	0	0							0	0		2 (50% of growth compared to untreated control)	4	4	4	2 (50% of growth compared to untreated control)	3 (75% of growth compared to untreated control)
C[S+]1CCON=C1c1ccc(C(F)(F)F)cc1 (stereo not shown) [Compound 25]	0	0	0							0	0	3 (75% of growth compared to untreated control)	0	3 (75% of growth compared to untreated control)	3 (75% of growth compared to untreated control)	0	0	2 (50% of growth compared to untreated control)
COC(=O)c1cccc(C2=NOCC[S+]2[O-])c1 (stereo not shown) [Compound 26]	0	0	0							0	0		4	4	4	4	4	3 (75% of growth compared to untreated control)
